Test results from patent US4812443A, “Methods for enhancing differentiation and proliferation of hematopoietic progenitor cells” (Kuraray Co., Ltd., priority 1984, dated 1989).

Experiments:
[1] = general knowledge; cited from earlier work
[2] = tested on: erythropoietic progenitor cells; settings: in vitro cell culture, presence of hematopoietic stimulating hormones; Table 1; cited from earlier work
[3] = tested on: late erythrocytic progenitor cells (CFU-e); assay: Differentiation and proliferation of late erythrocytic progenitor cells (CFU-e), cluster colony formation; format: cell-based, mouse (BDF1-strain); settings: 20 μg/ml, Runs 2 to 4; for Number of colonies formed in the dolichols-added group (CFU-e): 2 days, erythropoietin 0.25 unit, mean ± S.E., 6 replicas, solvent controls 124.2 ± 2.7, 246.0 ± 5.0, 124.7 ± 2.9
Description: (§1) The mouse bone marrow cells used in the following experiments were all prepared as follows:
(§2) BDF1 -strain mice (female, 8 to 10 weeks old) were killed by cervical dislocation, and the femurs were collected under sterile conditions. The bone marrow cells were flushed out from the femurs with α-medium, and formed into a single cell suspension by repeated aspiration with a 26-gauge needle fitted to a 1 ml-syringe. The cells were washed two times with α-medium by centrifugation at 200×G for 5 minutes and used in the following experiments.
In accordance with the method of Murphy et al. mentioned above, mouse bone marrow cells were plated at 2.5×10^4 nuclear cells into 0.5 ml of α-medium containing 0.25 unit of erythropoietin, 30% fetal bovine serum, 1% bovine serum albumin, 0.1 mM 2-mercaptoethanol and 0.4% methyl cellulose with 10 μg of dolichol dissolved in 1 μl of ethanol, 10 μg of dolichyl phosphate dispersed in 0.5 μl of dimethyl sulfoxide, 1 μl of ethanol or 0.5 μl of dimethyl sulfoxide in a 16 mm.phi. tissue culture plate, and incubated at 37° C. in a humidified atmosphere of 5% carbon dioxide in air for 2 days. The number of cluster colonies consisting of 8 to 64 erythroblasts derived from CFU-e in the tissue culture plate was scored with an inverted microscope. The experiment was carried out by 6 replica assays for each group, and the average number of the colonies formed was determined. The results are shown in Table 3, in the rows of Runs 2 to 4.

sea urchin embryos = settings: compactin added to the culture of the embryos; cited from earlier work
[4] = tested on: dolichol biosynthesis in spleen; settings: phenylhydrazine subcutaneous (induced anemia); cited from earlier work
erythropoiesis = assay: Erythropoiesis in vivo, 59Fe incorporation in hereditarily anemic mice (Run 7); design: species or system mouse (WBB6 F1-W/Wv-strain); settings: 250 mg/kg once i.p.
Description: Phenylhydrazine was administered to normal mice and hereditarily anemic mice to induce severe hemolytic anemia. Then, the rate of erythropoiesis during recovering of anemia was determined by measuring the rate of radioactive iron (^59 Fe) incorporation into newly formed red blood cells [P. M. Cotes, D. R. Bangham, Nature (London), 191, 1067 (1961)]. The testing method and results are described below.
Dolichyl phosphate in a dose of 250 mg/kg (0.2 ml of an emulsion obtained by emulsifying […] of dolichyl phosphate and 25 mg of sesame oil in 1 ml of a 1% aqueous solution of sodium carboxymethyl cellulose per 20 g of the body weight) was intraperitoneally administered to hereditarily anemic WBB6 F1 -W/Wv-strain mice (6 weeks old, female) on the 1st day of the experiment. A 1% aqueous solution of sodium carboxymethyl cellulose was intraperitoneally administered (0.2 ml/20 g of body weight) to a control group. On the 2nd day, the mice in each group were subcutaneously injected with phenylhydrazine hydrochloride in a dose of 60 mg/kg. […] On the 5th day, 0.5 ml of the whole blood was taken from each mouse, and the ^59 Fe incorporation rates during the period of 48 hours were measured as in Run 6. The experiment was carried out on 6 mice in each group, and the average value of the incorporation rates was calculated.

[5] = tested on: early erythrocytic progenitor cells (BFU-e); assay: Differentiation and proliferation of early erythrocytic progenitor cells (BFU-e), burst colony formation; format: cell-based, mouse (BDF1-strain); settings: 20 μg/ml, Run 1
Description: as §1, §2
In accordance with the method of Murphy et al. (In Vitro Aspects of Erythropoiesis, page 262, Sringer-Verlag, 1978), mouse bone marrow cells were plated at 2×10^5 nuclear cells into 1 ml of α-medium containing 1 unit of erythropoietin, 30% fetal bovine serum, 1% bovine serum albumin, 0.1 mM 2-mercaptoethanol and 0.8% methyl cellulose with 20 μg of dolichyl phosphate dispersed in 1 μl of dimethyl sulfoxide or 1 μl of dimethyl sulfoxide in a 35 mm.phi. tissue culture plate, and incubated at 37° C. in a humidified atmosphere of 5% carbon dioxide in air for 9 days. The number of burst colonies consisting of more than 500 erythroblasts derived from BFU-e in the tissue culture plate was scored with an inverted microscope. The experiment was carried out by 6 replica assays for each group, and the average number of the colonies formed was determined.

[6] = tested on: granulocyte-macrophage progenitor cells (CFU-c); assay: Differentiation and proliferation of granulocyte-macrophage progenitor cells (CFU-c), colony formation; format: cell-based, mouse (BDF1-strain); settings: printed 20 g/ml (method: 20 μg in 1 ml), Run 5
Description: as §1, §2
In accordance with the method of Worton et al. [R. G. Worton et al., J. Cell Physiol., 74, 171 (1969)], mouse bone marrow cells were plated at 1×10^5 nuclear cells into 1 ml of α-medium containing 10% L cell-conditioned medium as source of colony stimulating factor, 20% fetal bovine serum and 0.8% methyl cellulose with 20 μg of dolichyl phosphate dispersed in 1 μl of dimethyl sulfoxide or 1 μl of dimethyl sulfoxide in a 35 mm.phi. tissue culture plate, and incubated at 37° C. in a humidified atmosphere of 5% carbon dioxide in air for 7 days. The number of colonies consisting of more than 50 cells (granulocytecolonies, macrophage colonies or their mixed colonies) derived from […] was scored with an inverted microscope. The experiment was carried out by 6 replica assays for each group, and the average number of the colonies formed was determined.

mice = assay: Acute toxicity of dolichyl phosphate in mice; format: in vivo, mouse (BDF1-strain); settings: 1000 mg/kg and 2000 mg/kg i.p.; 2nd day of administration
Description: (2) Dolichyl phosphate synthesized in Referential Example 3 below was dissolved in the same amount of sesame oil, and added to a 1% aqueous solution of sodium carboxy methyl cellulose so that the concentration of dolichyl phosphate reached 5% V/V. The resulting emulsion was used in the test.
BDF1 -strain mice (20-23 g, female), 6 per group, were used.

C[C@@H]1C[C@H]2[C@@H]3CCC4=CC(=O)C=C[C@]4(C)[C@@]3(F)[C@@H](O)C[C@]2(C)[C@@]1(O)C(=O)CO [Dexamethasone]
Side-effects [1]: clinically undesirable side-effects such as electrolytic disorders, hypertension, peptic ulcer, diabetes, liver impediments, and masculinization | Effect on colony formation of erythropoietic progenitor cells [2]: .uparw.

CC(C)=CCC/C(C)=C/CC/C(C)=C/CC/C(C)=C\CC/C(C)=C\CC/C(C)=C\CC/C(C)=C\CC/C(C)=C\CC/C(C)=C\CC/C(C)=C\CC/C(C)=C\CC/C(C)=C\CC/C(C)=C\CC/C(C)=C\CC/C(C)=C\CC/C(C)=C\CC/C(C)=C\CC/C(C)=C\CC[C@H](C)CCO [Dolichol (n = 15)]
Number of colonies formed in the dolichols-added group (CFU-e) [3]: 293.0 ± 6.2 | activation at 20 µg/mL ([3]; Mus musculus, 48 h, vs solvent-added control group, read-out: Percent increase (%) of colony formation (CFU-e)): 19.1%

CC[C@H](C)C(=O)O[C@H]1CCC=C2C=C[C@H](C)[C@H](CC[C@@H]3C[C@@H](O)CC(=O)O3)[C@H]21 [compactin]
Differentiation of sea urchin embryos (sea urchin embryos): did not occur

NNc1ccccc1 [phenylhydrazine, reference compound]
Rate of dolichol biosynthesis in spleen [4]: greatly increased

Growth hormone: hormone named in Table 1
Effect on colony formation of erythropoietic progenitor cells [2]: .uparw.

Prostaglandin E
Effect on colony formation of erythropoietic progenitor cells [2]: .uparw.

Thyroid hormone
Effect on colony formation of erythropoietic progenitor cells [2]: .uparw.

dolichyl phosphate
59Fe incorporation rate (%), dolichol administered group (erythropoiesis; 48 hours, control group 21.4): 23.1% | Erythropoiesis enhancing ratio (%) (erythropoiesis; percent increase of 59Fe incorporation rate vs control): +7.9% | Number of colonies formed in the dolichols-added group (BFU-e) ([5]; 9 days, erythropoietin 1 unit, mean ± S.E., 6 replicas, solvent control 73.7 ± 3.4): 99.5 ± 2.4 | Percent increase (%) of colony formation (BFU-e) ([5]; vs solvent-added control group): +35.0% | Number of colonies formed in the dolichols-added group (CFU-e) [3]: 166.7 ± 2.4 | Percent increase (%) of colony formation (CFU-e) ([3]; vs solvent-added control group): +33.7% | Number of colonies formed in the dolichols-added group (CFU-c) ([6]; 7 days, mean ± S.E., 6 replicas, solvent control 256.8 ± 4.3): 295.3 ± 4.9 | Percent increase (%) of colony formation (CFU-c) ([6]; vs solvent-added control group): +15.0% | Mortality (mice): no case of death in all of the mice tested

B1: Human chorionic somatomammotropin: hormone named in Table 1 (protein, UniProt P0DML2 27-217, looked up)
Chorionic somatomammotropin …: VQTVPLSRLFDHAMLQAHRAHQLAIDTYQEFEETYIPKDQKYSFLHDSQTSFCFSDSIPTPSNMEETQQKSNLELLRISLLLIESWLEPVRFLRSMFANNLVYDTSDSDDYHLLKDLEEGIQTLMGRLEDGSRRTGQILKQTYSKFDTNSHNHDALLKNYGLLYCFRKDMDKVETFLRMVQCRSVEGSCGF
Effect on colony formation of erythropoietic progenitor cells [2]: .uparw.
